In the assay the test system is BDF1 mice, P388 leukemia ip, median survival T/C. In words: NCI In Vivo Anticancer Drug Screen. Data for tumor model P388 Leukemia (intraperitoneal) in B6D2F1 (BDF1) mice. The note with it: endpoint: median survival time, higher = longer survival. The method, boiled down:
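Antitumour effect was judged in vivo: survival in drug-treated mice, normalised to that of vehicle-dosed controls, gives the reported T/C.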

Setting [1] is: dose: 50.0 mg/kg/injection, schedule: Q01DX009 (ip), vehicle: saline.
Where [2] appears, read: dose: 100.0 mg/kg/injection, schedule: Q01DX009 (ip), vehicle: saline.
Setting [3] is: dose: 200.0 mg/kg/injection, schedule: Q01DX009 (ip), vehicle: saline.
Setting [4] is: dose: 100.0 mg/kg/injection, schedule: Q04DX003 (ip), vehicle: other.
The mark [5] stands for this setting: dose: 200.0 mg/kg/injection, schedule: Q04DX003 (ip), vehicle: other.
Setting [6] is: dose: 400.0 mg/kg/injection, schedule: Q04DX003 (ip), vehicle: other.

For 17 compounds, T/C results are on record in PubChem BioAssay AID328 (DTP/NCI, 2004).

Several values for one entry are separate records, joined by “and”; a condition that tells them apart may be missing. Equal values may be shown once. Inconclusive results and toxic doses are left out.

On to `CN(N=O)C(=O)NNC(=O)N(C)N=O`, for which the T/C is, setting by setting: (dose: 40.0 mg/kg/injection, schedule: Q04DX003 (ip), vehicle: saline with Tween-80) 105 % of control; (dose: 60.0 mg/kg/injection, schedule: Q04DX003 (ip), vehicle: saline with Tween-80) 115 % of control; (dose: 90.0 mg/kg/injection, schedule: Q04DX003 (ip), vehicle: saline with Tween-80) 105 % of control.

As to `COC(=O)c1cc(=O)n(-c2ccccc2F)c(SC)n1`, the T/C (dose: 100.0 mg/kg/injection, schedule: Q04DX003 (ip), vehicle: Klucel (hydroxypropylcellulose) (HPC)) is 116 % of control.

As to `Oc1c(I)cc(Cl)c2cccnc12`, the T/C runs as follows: (dose: 12.5 mg/kg/injection, schedule: Q01DX009 (ip), vehicle: Klucel (hydroxypropylcellulose) (HPC)) 115 % of control; (dose: 25.0 mg/kg/injection, schedule: Q01DX009 (ip), vehicle: Klucel (hydroxypropylcellulose) (HPC)) 115 % of control; (dose: 50.0 mg/kg/injection, schedule: Q01DX009 (ip), vehicle: Klucel (hydroxypropylcellulose) (HPC)) 120 % of control.

With `CNC/C(C)=C/Br`, the T/C (dose: 12.5 mg/kg/injection, schedule: Q01DX009 (ip), vehicle: acetone) was 100 % of control; the T/C (dose: 18.75 mg/kg/injection, schedule: Q04DX003 (ip), vehicle: saline) is 100 % of control; the T/C (dose: 25.0 mg/kg/injection, schedule: Q01DX009 (ip), vehicle: acetone) is 104 % of control; the T/C (dose: 37.5 mg/kg/injection, schedule: Q04DX003 (ip), vehicle: saline) is 104 % of control; the T/C (dose: 50.0 mg/kg/injection, schedule: Q01DX009 (ip), vehicle: acetone) is 104 % of control; the T/C under setting [1] is 100 % of control. For the same compound, the T/C (dose: 63.75 mg/kg/injection, schedule: Q01DX001 (ip), vehicle: saline) is 100 % of control; the T/C (dose: 75.0 mg/kg/injection, schedule: Q01DX009 (ip), vehicle: saline) was 95 % of control; the T/C (dose: 75.0 mg/kg/injection, schedule: Q04DX003 (ip), vehicle: saline) is 95 % of control; the T/C under setting [2] is 115 % of control; the T/C (dose: 110.0 mg/kg/injection, schedule: Q04DX003 (ip), vehicle: saline) was 110 % of control; the T/C (dose: 127.5 mg/kg/injection, schedule: Q01DX001 (ip), vehicle: saline) was 100 % of control. Moreover, the T/C runs as follows: (dose: 170.0 mg/kg/injection, schedule: Q04DX003 (ip), vehicle: saline) 110 % of control; under setting [3], 105 % of control; (dose: 255.0 mg/kg/injection, schedule: Q04DX003 (ip), vehicle: saline) 105 % of control.

Take `CC(=O)c1c(C)[nH]c(C(=O)OC(C)(C)C)c1C`: the T/C was 113 % of control (dose: 100.0 mg/kg/injection, schedule: Q01DX001 (ip), vehicle: Klucel (hydroxypropylcellulose) (HPC)); 100 % of control (dose: 200.0 mg/kg/injection, schedule: Q01DX001 (ip), vehicle: Klucel (hydroxypropylcellulose) (HPC)); 109 % of control (dose: 400.0 mg/kg/injection, schedule: Q01DX001 (ip), vehicle: Klucel (hydroxypropylcellulose) (HPC)).

Regarding `CS(=O)(=O)CCN(N=O)C(=N)N[N+](=O)[O-]`, the T/C by setting is: (dose: 19.0 mg/kg/injection, schedule: Q04DX003 (ip), vehicle: saline with Tween-80) 113 % of control; (dose: 150.0 mg/kg/injection, schedule: Q04DX003 (ip), vehicle: saline with Tween-80) 150 % of control.

Regarding `CC(=O)N(C(C)=O)c1cc([N+](=O)[O-])ccc1C`, the T/C was 106 % of control (dose: 100.0 mg/kg/injection, schedule: Q04DX003 (ip), vehicle: saline with Tween-80) and 93 % of control (dose: 200.0 mg/kg/injection, schedule: Q04DX003 (ip), vehicle: saline with Tween-80).

Regarding `CCOC(=O)CNC(=O)N(CC)C12CC3CC(CC(C3)C1)C2`, the T/C runs as follows: (dose: 100.0 mg/kg/injection, schedule: Q01DX009 (ip), vehicle: Klucel (hydroxypropylcellulose) (HPC)) 94 % of control; (dose: 130.0 mg/kg/injection, schedule: Q01DX009 (ip), vehicle: Klucel (hydroxypropylcellulose) (HPC)) 111 % of control; (dose: 200.0 mg/kg/injection, schedule: Q01DX009 (ip), vehicle: Klucel (hydroxypropylcellulose) (HPC)) 100 % of control; (dose: 300.0 mg/kg/injection, schedule: Q01DX009 (ip), vehicle: Klucel (hydroxypropylcellulose) (HPC)) 109 % of control; (dose: 400.0 mg/kg/injection, schedule: Q01DX009 (ip), vehicle: Klucel (hydroxypropylcellulose) (HPC)) 122 % of control.

Consider `CC(=O)OC1CCC2(C)C3=C(CCC2C1(C)C)C1(C)CCC(c2ccc(C(C)C)oc2=O)C1(C)CC3` (stereo unspecified), for which the T/C was 90 % of control (dose: 70.0 mg/kg/injection, schedule: Q01DX010 (ip), vehicle: carboxymethylcellulose (CMC)); 90 % of control (dose: 140.0 mg/kg/injection, schedule: Q01DX010 (ip), vehicle: carboxymethylcellulose (CMC)); 90 % of control (dose: 280.0 mg/kg/injection, schedule: Q01DX010 (ip), vehicle: carboxymethylcellulose (CMC)).

With `CCN1c2c(nc(N)[nH]c2=O)NCC1CNc1ccc(C(=O)NC(CCC(=O)O)C(=O)O)cc1` (stereo unspecified), the T/C is, setting by setting: under setting [2], 101 % of control; under setting [3], 105 % of control; (dose: 400.0 mg/kg/injection, schedule: Q01DX009 (ip), vehicle: saline) 105 % of control.

Take `OC1(C2CCCCC2)C2CCCC1CCC2` (stereo unspecified): the T/C runs as follows: (dose: 12.5 mg/kg/injection, schedule: Q01DX009 (ip), vehicle: saline with Tween-80) 104 % of control; (dose: 25.0 mg/kg/injection, schedule: Q01DX009 (ip), vehicle: saline with Tween-80) 95 % of control; (dose: 50.0 mg/kg/injection, schedule: Q01DX009 (ip), vehicle: saline with Tween-80) 109 % of control; under setting [4], 104 % of control; under setting [5], 109 % of control; under setting [6], 104 % of control.

`CCN1C=C/C(=C\C=C/c2cc[n+](CC)c3ccccc23)c2ccccc21`: the T/C was 113 % of control (dose: 0.13 mg/kg/injection, schedule: Q01DX009 (ip), vehicle: saline); 160 % of control (dose: 0.25 mg/kg/injection, schedule: Q01DX009 (ip), vehicle: saline); 115 % of control (dose: 0.27 mg/kg/injection, schedule: Q04DX003 (ip), vehicle: saline); 150 % of control (dose: 0.4 mg/kg/injection, schedule: Q01DX009 (ip), vehicle: Klucel (hydroxypropylcellulose) (HPC)); 100 % of control and 115 % of control (dose: 0.4 mg/kg/injection, schedule: Q04DX003 (ip), vehicle: saline); 160 % of control (dose: 0.5 mg/kg/injection, schedule: Q01DX009 (ip), vehicle: saline). Moreover, the T/C reads like this: (dose: 0.62 mg/kg/injection, schedule: Q01DX009 (ip), vehicle: Klucel (hydroxypropylcellulose) (HPC)) 154 % of control; (dose: 0.62 mg/kg/injection, schedule: Q04DX003 (ip), vehicle: saline) 100 % of control and 110 % of control; (dose: 0.66 mg/kg/injection, schedule: Q04DX003 (ip), vehicle: saline) 154 % of control; (dose: 0.82 mg/kg/injection, schedule: Q04DX003 (ip), vehicle: saline) 155 % of control; (dose: 44.0 micrograms/kg/injection, schedule: Q01DX009 (ip), vehicle: saline) 108 % of control.

Take `C=CCCCCCCCCC(=O)NCc1nc2ccccc2[nH]1`: the T/C was 100 % of control (dose: 100.0 mg/kg/injection, schedule: Q01DX009 (ip), vehicle: saline with Tween-80); 109 % of control (dose: 200.0 mg/kg/injection, schedule: Q01DX009 (ip), vehicle: saline with Tween-80); 95 % of control (dose: 400.0 mg/kg/injection, schedule: Q01DX009 (ip), vehicle: saline with Tween-80).

As for `Cc1nc(N)ncc1CCC1OCCO1`, the T/C (dose: 100.0 mg/kg/injection, schedule: Q01DX001 (ip), vehicle: saline) was 100 % of control; the T/C (dose: 200.0 mg/kg/injection, schedule: Q01DX001 (ip), vehicle: saline) was 109 % of control; the T/C (dose: 400.0 mg/kg/injection, schedule: Q01DX001 (ip), vehicle: saline) was 111 % of control.

Regarding `CSc1ccc(C(O)CNC(C)C)cc1C` (stereo unspecified), the T/C is 100 % of control under setting [1] and 100 % of control under setting [2].

Regarding `CC(C)(C)OC(=O)NCC(=O)NC(Cc1c[nH]c2ccccc12)C(=O)O` (stereo unspecified), the T/C was 102 % of control (dose: 50.0 mg/kg/injection, schedule: Q01DX005 (ip), vehicle: saline with Tween-80); 95 % of control (dose: 100.0 mg/kg/injection, schedule: Q01DX005 (ip), vehicle: saline with Tween-80); 95 % of control (dose: 200.0 mg/kg/injection, schedule: Q01DX005 (ip), vehicle: saline with Tween-80).

For the compound `CCCCCCCCCC(=O)CCCCC`, the T/C was 109 % of control under setting [4], 109 % of control under setting [5] and 113 % of control under setting [6].
